Test results published in the supplement of paper PMC10307832.

Key:
Experiment in all cases: relative viability (nuclei count vs DMSO), 5 days (fraction); higher = more cells survive
H3255 = test system: H3255
How it was run: (§1)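 Lung cancer cell lines were pin-tool dosed in 1536-well plates on the day after seeding, with either a lone drug or a fixed anchor-drug dose plus five library-drug doses (not always all listed) in √10 steps. Nuclei were counted on 4× images after 5 days. Relative viability is the ratio of treated-well to vehicle-well nuclei counts, with each value a median of duplicate plates.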

LCLC-97TM1 = test system: LCLC-97TM1
How it was run: as §1

NCI-H1993 = test system: NCI-H1993
How it was run: as §1

NCI-H661 = test system: NCI-H661
How it was run: as §1

NCI-H2085 = test system: NCI-H2085
How it was run: as §1

NCI-H2023 = test system: NCI-H2023
How it was run: as §1

NCI-H1915 = test system: NCI-H1915
How it was run: as §1

EPLC-272H = test system: EPLC-272H
How it was run: as §1

HOP-62 = test system: HOP-62
How it was run: as §1

NCI-H2126 = test system: NCI-H2126
How it was run: as §1

NCI-H2347 = test system: NCI-H2347
How it was run: as §1

EMC-BAC-2 = test system: EMC-BAC-2
How it was run: as §1

SW 1573 = test system: SW 1573
How it was run: as §1

LXF-289 = test system: LXF-289
How it was run: as §1

PC-14 = test system: PC-14
How it was run: as §1

NCI-H2009 = test system: NCI-H2009
How it was run: as §1

NCI-H1734 = test system: NCI-H1734
How it was run: as §1

NCI-H647 = test system: NCI-H647
How it was run: as §1

NCI-H322M = test system: NCI-H322M
How it was run: as §1

NCI-H727 = test system: NCI-H727
How it was run: as §1

NCI-H1563 = test system: NCI-H1563
How it was run: as §1

SK-LU-1 = test system: SK-LU-1
How it was run: as §1

With Cc1sc2c(c1C)C(c1ccc(Cl)cc1)=N[C@@H](CC(=O)OC(C)(C)C)c1nnc(C)n1-2 [JQ1] + CS(=O)(=O)N1CCN(Cc2cc3nc(-c4cccc5[nH]ncc45)nc(N4CCOCC4)c3s2)CC1 [Pictilisib] (partner 1 µM) the relative viability (H3255; first compound 0.04 µM) was 0.468, the relative viability (H3255; first compound 0.1265 µM) was 0.464 and the relative viability (H3255; first compound 0.4 µM) was 0.552. For the same compound, the relative viability (H3255; first compound 1.265 µM) was 0.381, the relative viability (H3255; first compound 4 µM) was 0.338 and the relative viability (LCLC-97TM1; first compound 0.1265 µM) was 0.28. The relative viability (LCLC-97TM1; first compound 0.4 µM) was 0.176, the relative viability (LCLC-97TM1; first compound 1.265 µM) was 0.105 and the relative viability (LCLC-97TM1; first compound 4 µM) was 0.107. The relative viability (NCI-H1993; first compound 0.04 µM) was 0.883, the relative viability (NCI-H1993; first compound 0.1265 µM) was 0.788 and the relative viability (NCI-H1993; first compound 0.4 µM) was 0.888. It also gave a relative viability (NCI-H1993; first compound 1.265 µM) of 0.635, a relative viability (NCI-H1993; first compound 4 µM) of 0.846 and a relative viability (NCI-H661; first compound 0.04 µM) of 0.426. For the same compound, the relative viability (NCI-H661; first compound 0.1265 µM) was 0.326, the relative viability (NCI-H661; first compound 0.4 µM) was 0.337 and the relative viability (NCI-H661; first compound 1.265 µM) was 0.365. It also gave a relative viability (NCI-H661; first compound 4 µM) of 0.294, a relative viability (NCI-H2085; first compound 0.04 µM) of 0.462 and a relative viability (NCI-H2085; first compound 0.1265 µM) of 0.497. For the same compound, the relative viability (NCI-H2085; first compound 0.4 µM) was 0.441, the relative viability (NCI-H2085; first compound 1.265 µM) was 0.368 and the relative viability (NCI-H2085; first compound 4 µM) was 0.385. For the same compound, the relative viability (NCI-H2023; first compound 0.04 µM) was 0.234, the relative viability (NCI-H2023; first compound 0.1265 µM) was 0.268 and the relative viability (NCI-H2023; first compound 0.4 µM) was 0.196. For the same compound, the relative viability (NCI-H2023; first compound 1.265 µM) was 0.161, the relative viability (NCI-H2023; first compound 4 µM) was 0.156 and the relative viability (NCI-H1915; first compound 0.04 µM) was 0.89. It also gave a relative viability (NCI-H1915; first compound 0.1265 µM) of 0.872, a relative viability (NCI-H1915; first compound 0.4 µM) of 0.758 and a relative viability (NCI-H1915; first compound 1.265 µM) of 0.494. The relative viability (NCI-H1915; first compound 4 µM) was 0.226, the relative viability (EPLC-272H; first compound 0.04 µM) was 0.298 and the relative viability (EPLC-272H; first compound 0.1265 µM) was 0.326. It also gave a relative viability (EPLC-272H; first compound 0.4 µM) of 0.301, a relative viability (EPLC-272H; first compound 1.265 µM) of 0.223 and a relative viability (EPLC-272H; first compound 4 µM) of 0.184. It also gave a relative viability (HOP-62; first compound 0.04 µM) of 0.815, a relative viability (HOP-62; first compound 0.1265 µM) of 0.56 and a relative viability (HOP-62; first compound 0.4 µM) of 0.249. The relative viability (HOP-62; first compound 1.265 µM) was 0.0959, the relative viability (HOP-62; first compound 4 µM) was 0.101 and the relative viability (NCI-H2126; first compound 0.04 µM) was 0.484. For the same compound, the relative viability (NCI-H2126; first compound 0.1265 µM) was 0.473, the relative viability (NCI-H2126; first compound 0.4 µM) was 0.435 and the relative viability (NCI-H2126; first compound 1.265 µM) was 0.37. For the same compound, the relative viability (NCI-H2126; first compound 4 µM) was 0.349, the relative viability (NCI-H2347; first compound 0.04 µM) was 0.791 and the relative viability (NCI-H2347; first compound 0.1265 µM) was 0.529. For the same compound, the relative viability (NCI-H2347; first compound 0.4 µM) was 0.542, the relative viability (NCI-H2347; first compound 1.265 µM) was 0.334 and the relative viability (NCI-H2347; first compound 4 µM) was 0.372. It also gave a relative viability (EMC-BAC-2; first compound 0.04 µM) of 0.551, a relative viability (EMC-BAC-2; first compound 0.1265 µM) of 0.499 and a relative viability (EMC-BAC-2; first compound 0.4 µM) of 0.565. For the same compound, the relative viability (EMC-BAC-2; first compound 1.265 µM) was 0.27, the relative viability (EMC-BAC-2; first compound 4 µM) was 0.26 and the relative viability (SW 1573; first compound 0.04 µM) was 0.486. It also gave a relative viability (SW 1573; first compound 0.1265 µM) of 0.443, a relative viability (SW 1573; first compound 0.4 µM) of 0.421 and a relative viability (SW 1573; first compound 1.265 µM) of 0.212. It also gave a relative viability (SW 1573; first compound 4 µM) of 0.221, a relative viability (LXF-289; first compound 0.04 µM) of 0.792 and a relative viability (LXF-289; first compound 0.1265 µM) of 0.783. The relative viability (LXF-289; first compound 0.4 µM) was 0.629, the relative viability (LXF-289; first compound 1.265 µM) was 0.462 and the relative viability (LXF-289; first compound 4 µM) was 0.409. It also gave a relative viability (PC-14; first compound 0.04 µM) of 0.631, a relative viability (PC-14; first compound 0.1265 µM) of 0.498 and a relative viability (PC-14; first compound 0.4 µM) of 0.445. The relative viability (PC-14; first compound 1.265 µM) was 0.243, the relative viability (PC-14; first compound 4 µM) was 0.122 and the relative viability (NCI-H2009; first compound 0.04 µM) was 0.767. The relative viability (NCI-H2009; first compound 0.1265 µM) was 0.534, the relative viability (NCI-H2009; first compound 0.4 µM) was 0.33 and the relative viability (NCI-H2009; first compound 1.265 µM) was 0.205. It also gave a relative viability (NCI-H2009; first compound 4 µM) of 0.245, a relative viability (NCI-H1734; first compound 0.04 µM) of 0.466 and a relative viability (NCI-H1734; first compound 0.1265 µM) of 0.444. For the same compound, the relative viability (NCI-H1734; first compound 0.4 µM) was 0.503, the relative viability (NCI-H1734; first compound 1.265 µM) was 0.296 and the relative viability (NCI-H1734; first compound 4 µM) was 0.327. For the same compound, the relative viability (NCI-H647; first compound 0.04 µM) was 0.428, the relative viability (NCI-H647; first compound 0.1265 µM) was 0.3 and the relative viability (NCI-H647; first compound 0.4 µM) was 0.305. It also gave a relative viability (NCI-H647; first compound 1.265 µM) of 0.188, a relative viability (NCI-H647; first compound 4 µM) of 0.15 and a relative viability (NCI-H322M; first compound 0.04 µM) of 0.478. For the same compound, the relative viability (NCI-H322M; first compound 0.1265 µM) was 0.559, the relative viability (NCI-H322M; first compound 0.4 µM) was 0.439 and the relative viability (NCI-H322M; first compound 1.265 µM) was 0.398. It also gave a relative viability (NCI-H322M; first compound 4 µM) of 0.358, a relative viability (NCI-H727; first compound 0.04 µM) of 0.371 and a relative viability (NCI-H727; first compound 0.1265 µM) of 0.554. For the same compound, the relative viability (NCI-H727; first compound 0.4 µM) was 0.205, the relative viability (NCI-H727; first compound 1.265 µM) was 0.233 and the relative viability (NCI-H727; first compound 4 µM) was 0.309. For the same compound, the relative viability (NCI-H1563; first compound 0.04 µM) was 0.606, the relative viability (NCI-H1563; first compound 0.1265 µM) was 0.645 and the relative viability (NCI-H1563; first compound 0.4 µM) was 0.611. It also gave a relative viability (NCI-H1563; first compound 1.265 µM) of 0.622, a relative viability (NCI-H1563; first compound 4 µM) of 0.638 and a relative viability (SK-LU-1; first compound 0.04 µM) of 0.581. For the same compound, the relative viability (SK-LU-1; first compound 0.1265 µM) was 0.438, the relative viability (SK-LU-1; first compound 0.4 µM) was 0.456 and the relative viability (SK-LU-1; first compound 1.265 µM) was 0.256. For the same compound, the relative viability (SK-LU-1; first compound 4 µM) was 0.171.
